1 compound from patent US9956200B2, “Compositions comprising dihydroquercetin for use in methods for treating the effects associated with skin inflammatory disorders” (BIONOOX SUISSE SA, priority 2014, dated 2018) can be followed below.

Each structure is given as a SMILES string. Several values for one entry are separate records, joined by “and”; a condition that tells them apart may be missing. Equal values may be shown once.

Common to all, as to format: cell-based
One experiment deals with human mast cells. As to the kind of experiment: Mast cell degranulation (beta-hexosaminidase release) induced by IgE then anti-IgE. The following applies: versus kinase inhibitors and chromoglycate (reference molecule). An excerpt: Pure populations of human mast cells (HMC) are obtained by long-term culture of human normal hematopoietic progenitors (CD34^+ cells) in the continuous presence of Stem Cell Factor (SCF). Sources of these CD34^+ cells are mainly bone marrow, cord blood or peripheral blood. Usually, mononuclear cells from bone marrow and cord blood contain 0.5-1% of CD34^+ cells, whereas peripheral blood contains less than 0.1% of CD34^+ cells. Hematopoietic progenitor cells can be rapidly and efficiently enriched to a purity of about 85-98% using positive selection of magnetically labeled CD34^+ cells. Hematopoietic progenitor cells are then magnetically labeled using MACS CD34 MicroBeads. The magnetically labeled cells are enriched on positive selection columns in the magnetic field. Mononuclear cells from peripheral blood (PBMC), cord blood, or bone marrow may otherwise be obtained by density gradient centrifugation over Ficoll Paque®. Fractionation methods for producing mast cells are described in the art (see for instance Arock et al., 2008, Methods in Molecular biology 415: 241-254). Mast cell degranulation was induced by sequential treatment of mast cell by IgE, then by anti-IgE antibodies. Degranulation was subsequently measured by evaluating the release of beta-hexosaminidase, 1 h after IgE stimulation (see FIG. 4).

Experiment [1] relates to neutrophils triggered by fMLP. As to the kind of experiment: ROS production by luminol chemiluminescence, neutrophils triggered by fMLP. The following applies: fMLP 10^−6 M; DHQ 1, 10 or 100 μM, concentration per sample not given. As to the method:
Neutrophils (5×10^5) are suspended in 0.5 mL of Hanks balanced salt solution containing 10 μM luminol at 37° C. The cells are then stimulated with 10^−6M fMLF (N-formylmethionyl-leucyl-phenylalanine). Chemiluminescence is recorded with a luminometer (Berthold-Biolumat LB937). Similarly, neutrophils were triggered by fMLP (10^−6 M) in the presence of different concentrations of DHQ (0, 1, 10 and 100 μM) at 37° C. in Hanks buffer containing 10 μM luminol and chemiluminescence was measured by a chemiluminometer. Total chemiluminescence counts during 22.21 min. (integrals) corresponding to total ROS production were determined.

Experiment [2] deals with polymorphonuclear neutrophils. Put plainly: Oxygen consumption of polymorphonuclear neutrophils triggered by PMA and fMLP. The following applies: data not shown.

Regarding `O=C1c2c(O)cc(O)cc2OC(c2ccc(O)c(O)c2)C1O` (stereo not shown) [DHQ], the “inhibitory activity on mast cell degranulation compared with reference molecules” value in the experiment on human mast cells is “superior to kinase inhibitors and chromoglycate”. Also, in experiment [1], the “T.half (fall)” value was 3.78 and 3.55; the “T.half (rise)” value was determined as 1.55. In addition, in experiment [2], the “effect on oxygen consumption of polymorphonuclear neutrophils” value is “strongly inhibits”.
